Here are results for 20 compounds from PubChem BioAssay (NCI).

Experiment in all cases: NCI tumour cell line growth inhibition, 48 h
Experiment [1] has as its system A549 NSCLC.
Experiment [2] deals with CCRF-CEM leukemia.
In experiment [3] the test system is EKVX NSCLC.
Experiment [4] deals with HCT-116 colon.
Experiment [5] has as its system HS 578T breast.
Experiment [6] deals with MALME-3M melanoma.
Experiment [7] has as its system MDA-MB-435.
In experiment [8] the test system is SF-295 CNS.
Experiment [9] deals with SK-MEL-2 melanoma.
For experiment [10], the system named is SN12C renal.
For experiment [11], the system named is SW-620 colon.
Experiment [12] deals with TK-10 renal.
Experiment [13] deals with UACC-257 melanoma.
The subject of experiment [14] is UO-31 renal.
Experiment [15] concerns SK-MEL-5 melanoma.
Experiment [16] deals with RXF 393 renal.

The structures appear in SMILES notation.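 In this assay, cells in 96-well plates receive the compound at five concentrations for 48 hours. Endpoints are linearly interpolated between the surrounding concentrations. The concentration for full growth arrest is given as TGI.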 Some results are limits rather than exact numbers.

On to `Cc1nc(N)c(N2CCN(C(=O)O)CC2)c(=O)[nH]1`, for which the TGI in [1], in [2], in [3], in experiment [4], in experiment [5] and in experiment [6] was above 100 µM throughout. In addition, the TGI in [7], in [8], in experiment [9], in experiment [10], in [11] and in experiment [12] was above 100 µM in each case. The TGI in experiment [13] and in [14] was above 100 µM in each case.

As to `CCOc1cc(C2SCC(=O)N2c2ccc(Oc3ccc(Cl)cc3)c(Cl)c2)ccc1O` (configuration not stated), the TGI in experiment [1] came out at 39.7 µM; in experiment [2], 49.5 µM; in [3] it was 33.4 µM; in [4] it was 25.1 µM; in [5], 37.1 µM; in [6] it was 32.4 µM. For the same compound, the TGI in [7] was 42 µM; in experiment [8] it was 34.1 µM; in experiment [9], 32.7 µM; in experiment [15] it was 31.5 µM; in experiment [10] it was 59.3 µM; in experiment [11] it was 37.7 µM. The figures for the TGI in [12], in experiment [13] and in [14] were 34.2 µM, 33.3 µM and 21.7 µM, respectively.

Regarding `N#Cc1cccc2c1Nc1ccccc1S2`, the TGI in experiment [1], in [2], in experiment [3], in experiment [4], in experiment [6] and in experiment [16] was above 100 µM each time. Moreover, the TGI in experiment [8], in experiment [9], in experiment [15], in experiment [10], in [11] and in experiment [12] was above 100 µM throughout. Moreover, the TGI in [13] and in experiment [14] was above 100 µM each time.

As to `COP(=O)(OC)C(=O)N1N(c2ccc([N+](=O)[O-])cc2)C(=O)C(C)NC1(NNc1ccc([N+](=O)[O-])cc1)P(=O)(OC)OC` (configuration not stated), the TGI in [1], in experiment [2], in experiment [3], in [4], in experiment [6] and in [9] was above 100 µM each time. Besides, the TGI in experiment [15], in experiment [10], in [11], in experiment [12], in [13] and in experiment [14] was above 100 µM in each case.

`O=C(c1ccccc1)c1c(CC(O)c2ccccn2)n(C(=O)c2ccccc2)c2ccccc12` (configuration not stated): the TGI in [1] is above 100 µM; in [2], 80.5 µM; in [4], 27.8 µM; in experiment [6], 46 µM; in experiment [8] it was 84.8 µM; in [9], 30.9 µM. The TGI in experiment [15] is 27.3 µM; in experiment [11], above 100 µM; in [12] it was above 100 µM; in [13], 43.6 µM; in experiment [14] it was 67.5 µM.

Take `N#CC(C(=O)c1cccnc1Cl)c1nc2cc(C(F)(F)F)ccc2s1` (configuration not stated): the TGI is above 100 µM in experiment [1]; above 100 µM in [3]; 90.3 µM in experiment [4]; above 100 µM in experiment [6]; above 100 µM in experiment [7]; above 100 µM in experiment [16]. The TGI in experiment [8], in [15], in [10], in experiment [11], in [12] and in [13] was above 100 µM in each case. The TGI in experiment [14] was above 100 µM.

`Cc1ccn2c(=O)cc(CN3CCOCC3)nc2c1`: the TGI in experiment [1], in experiment [2], in experiment [3], in experiment [4], in experiment [5] and in experiment [6] was above 100 µM throughout. Besides, the TGI in experiment [7], in experiment [8], in [9], in [10], in experiment [11] and in experiment [12] was above 100 µM throughout. The TGI in experiment [13] and in experiment [14] was above 100 µM in each case.

For `COc1ccc(C2=C(Cl)c3cc(OC)c(OC)cc3C2OC)cc1OC` (configuration not stated), the TGI in experiment [1], in experiment [2], in [3], in experiment [4], in experiment [6] and in experiment [16] was above 100 µM in each case. Further, the TGI in experiment [8] was above 100 µM; in experiment [9], above 100 µM; in experiment [15], above 100 µM; in experiment [10] it was above 100 µM; in experiment [11], 49.2 µM; in [12], above 100 µM. Further, the TGI in experiment [13] and in experiment [14] was above 100 µM throughout.

Turning to `CCOC(=O)c1c[nH]c2c(Sc3ccccc3)nccc2c1=O`, the TGI in [1], in [2], in experiment [3], in experiment [4], in experiment [5] and in [7] was above 100 µM in each case. Also, the TGI in experiment [8], in experiment [9], in experiment [15], in experiment [10], in [11] and in experiment [12] was above 100 µM throughout. Also, the TGI in experiment [13] and in experiment [14] was above 100 µM in each case.

In the case of `CC(=O)Nc1ccc(NCC(=O)Nn2cnc3ccc(S(=O)(=O)Nc4ccc(NC(C)=O)cc4)cc3c2=O)cc1`, the TGI in experiment [1], in experiment [2], in experiment [3], in experiment [4], in experiment [5] and in experiment [6] was above 100 µM throughout. Also, the TGI in experiment [7], in experiment [8], in [9], in experiment [10], in experiment [11] and in experiment [12] was above 100 µM each time. The TGI in experiment [13] and in experiment [14] was above 100 µM in each case.

With `CCN(CC)c1cccc2c1/C(=N/O)CCCC2`, the TGI in experiment [1], in [2], in experiment [3], in experiment [4], in experiment [6] and in experiment [16] was above 100 µM throughout. Also, the TGI in experiment [8], in [9], in [15], in experiment [10], in [11] and in experiment [12] was above 100 µM each time. In addition, the TGI in experiment [13] and in experiment [14] was above 100 µM each time.

On to `CCCNC(=S)/N=C/c1c(O)cc(C)oc1=O`, for which the TGI in experiment [1], in experiment [3], in [4], in [7], in [8] and in experiment [9] was above 100 µM each time. Besides, the TGI in experiment [15], in experiment [10], in experiment [11], in [12], in [13] and in experiment [14] was above 100 µM each time.

As to `C[C@@H](c1ccccc1)n1c(N)c(-c2ccccn2)c2ccc([N+](=O)[O-])cc2c1=O`, the TGI in [1], in experiment [2], in experiment [4], in experiment [5], in experiment [7] and in [9] was above 100 µM throughout. Also, the TGI in experiment [15], in experiment [10], in experiment [11], in experiment [12], in experiment [13] and in experiment [14] was above 100 µM in each case.

Take `CC1(C)O[C@@H]([C@H](O)CO)[C@H](O)[C@@H](C2SCCCS2)O1`: the TGI in experiment [1], in [3], in [4], in experiment [7], in experiment [16] and in [8] was above 100 µM each time. For the same compound, the TGI in experiment [9], in experiment [15], in experiment [10], in experiment [11], in experiment [12] and in [13] was above 100 µM throughout. In addition, in experiment [14], the TGI is above 100 µM.

Take `CCc1ccccc1N=NC(=O)NNc1ccccc1CC`: the TGI turned out to be 31.9 µM in [1]; 65.6 µM in experiment [2]; 29 µM in experiment [4]; 32.7 µM in experiment [6]; 49 µM in experiment [7]; 31.7 µM in [9]. Besides, the TGI was determined as 28.6 µM in experiment [15]; 35.7 µM in [10]; 37.5 µM in [11]; 50.1 µM in experiment [12]; 36.1 µM in experiment [13]; 39.8 µM in experiment [14].

On to `CC(C)OP(=O)(OC(C)C)/C(Cl)=N/Nc1ccc([N+](=O)[O-])cc1`, for which the TGI in experiment [1], in experiment [2], in experiment [3], in [4], in experiment [6] and in experiment [9] was above 100 µM throughout. Also, the TGI in experiment [15], in experiment [10], in experiment [11], in experiment [12], in experiment [13] and in experiment [14] was above 100 µM in each case.

Regarding `OC(c1ccc(F)cc1)C(F)(F)c1nc2ccccc2o1` (configuration not stated), the TGI in experiment [2], in [3], in experiment [4], in experiment [7], in experiment [16] and in experiment [8] was above 100 µM each time. The TGI in experiment [9], in experiment [15], in experiment [11], in [12], in [13] and in experiment [14] was above 100 µM each time.

Consider `S=c1[nH]nc(CNc2ccc(-c3n[nH]c(=S)n3-c3ccc(Cl)cc3)cc2)n1-c1ccc(Cl)cc1`, for which the TGI in [1] was above 100 µM; in [3], above 100 µM; in [4], 32.8 µM; in experiment [6], 59.9 µM; in experiment [7], above 100 µM; in experiment [16], above 100 µM. Besides, the TGI is 81.2 µM in experiment [8]; 57.7 µM in experiment [9]; 65 µM in [15]; 82.8 µM in experiment [10]; above 100 µM in [11]; above 100 µM in [12]. The TGI in experiment [13] was above 100 µM; in [14], 32.4 µM.

`CCN(CC)C(=O)Cc1c(C(=O)N(CC)CC)c(=O)nc2sccn12`: the TGI in experiment [1], in experiment [2], in experiment [3], in experiment [4], in experiment [6] and in [16] was above 100 µM each time. In addition, the TGI in [8], in [9], in [10], in experiment [11], in experiment [12] and in experiment [13] was above 100 µM in each case. This compound also registered a TGI in experiment [14] above 100 µM.

For `CC(=O)O[C@H]1C(=O)[C@@]2(C)[C@H]([C@H](OC(=O)c3cccc([N+](=O)[O-])c3)[C@]3(O)C[C@H](OC(=O)[C@H](O)[C@@H](NC(=O)c4ccccc4)c4ccccc4)C(C)=C1C3(C)C)[C@]1(OC(C)=O)CO[C@@H]1C[C@@H]2O`, the TGI was above 25 µM in [1]; above 25 µM in experiment [3]; above 25 µM in experiment [4]; 0.00761 µM in experiment [5]; 0.0114 µM in experiment [7]; 0.15 µM in experiment [8]. Further, the TGI is above 25 µM in experiment [9]; above 9.01 µM in experiment [15]; above 25 µM in experiment [10]; above 25 µM in experiment [11]; above 21.8 µM in experiment [12]; above 25 µM in experiment [13]. In experiment [14], this compound gave a TGI above 25 µM.
